Measured values from patent US20230295137A1, “COVALENT EGFR INHIBITORS AND METHODS OF USE THEREOF” (DANA-FARBER CANCER INSTITUTE, INC., priority 2020, published 2023).

Tests used:
[1] = tested on: EGFR L858R/C797S Ba/F3 cells; assay: Ba/F3 cell proliferation (Cell Titer Glo), EGFR L858R/C797S; format: cell-based, murine; conditions: Mus musculus, BaF3, Ba/F3 cells with EGFR L858R/C797S, 72 hours exposure, read-out: L/C797S
Text: (§1) The selectivity between wild-type EGER and EGFR containing one or more mutations as described herein can also be measured using cellular proliferation assays where cell proliferation is dependent on kinase activity. For example, murine Ba/F3 cells transfected with a suitable version of wild-type EGFR (such as VIII; containing a WT EGFR kinase domain), or Ba/F3 cells transfected with L858R/T790M, Del/T790M/L718Q, L858R/T790M/L718Q, L858R/T790M/C797S, Del/T790M/C797S, L858R/T790M/I941R, or Exon 19 deletion/T790M can be used.
(§2) The EGFR mutant L858R Ba/F3 cells have been previously described (Zhou, W., et al. Nature 482, 2009, 1070-1074). […]
(§3) Growth and inhibition of growth was assessed by the Cell Titer Glo assay (Promega, Madison, WI) and was performed according to the manufacturer's instructions. The Cell Titer Glo assay is a luminescence-based method used to determine the number of viable cells based on quantitation of the ATP present, which is directly proportional to the amount of metabolically active cells present. Ba/F3 cells of different EGFR genotypes were exposed to compounds for 72 hours and the number of cells used per experiment was determined empirically as has been previously established (Zhou, et al., Nature 2009). […]

[2] = tested on: EGFR mutant L858R Ba/F3 cells; assay: Ba/F3 cell proliferation (Cell Titer Glo), EGFR L858R; format: cell-based, murine; conditions: Mus musculus, BaF3, Ba/F3 cells with EGFR L858R, 72 hours exposure, read-out: L BaF3
Text: as §1, §2, §3

SMILES	EC50 [1]	EC50 [2]
C=CC(=O)Nc1cc(C(=O)Nc2nc3cccc(C)c3n2[C@@H]2CCCCN(C(C)=O)C2)cs1 [Compound 002]	430 nM	110 nM
C=CC(=O)Nc1csc(C(=O)Nc2nc3cccc(C)c3n2[C@@H]2CCCCN(C(C)=O)C2)c1 [Compound 009]	173 nM	62 nM
